What was measured:
TP53 = assay: MD-level time series after flavopiridol; assay type: cell-based; conditions: mouse embryonic cells, time series 0-50 minutes relative to time point 0, FIG. 12D
Source text: (§1) The bottom panel of FIG. 4A indicates the change in MD-level (AMDS) following perturbation (y-axis) relative to the number of motifs within 1.5kb of any eRNA origin (x-axis). […] (D) A time series data set following treatment with Flavopiridol Jonkers2014. The y-axis indicates the MD-level change relative to time point 0. Blue dots indicate a MD-level difference <10^−6. A darker shaded line indicates a time trajectory with at least one significant MD-level. (E) Time series data set following treatment with Kdo2-lipid A (KLA) where each time point is normalized to time-matched DMSO Kaikkonen2014. Therefore, the y-axis indicates MD-level difference relative to the time point matched DMSO sample.
(§2) In each of the aforementioned perturbations, nascent transcription was assessed at a time point of one hour or less.
(§3) FIG. 12D data set following treatment with Flavopiridol Jonkers2014. The y-axis indicates the MD-level change relative to time point 0. […]
(§4) The Motif Displacement score (MD-level) relates the proportion of significant motif sites within some window 2*h divided by the total number of motifs against some larger window 2*H centered at all bidirectional origin events. It is calculated on a per PWM binding model basis.
(§5) Let Xj={x1,x2, . . . } be the set of bidirectional origin locations genome wide for some experiment j. […] Therefore the set of all MD-levels is calculated by equation 10. […]

E4F1 = assay: MD-level time series after flavopiridol; assay type: cell-based; conditions: mouse embryonic cells, time series 0-50 minutes relative to time point 0, FIG. 12D
Source text: as §1, §2, §3, §4, §5

TFs = assay: MD-level time series after flavopiridol, all TFs; assay type: cell-based; conditions: mouse embryonic cells
Source text: as §1, §2, §3, §4, §5

[1] = tested on: 641 available TF-motif models; assay: Differential MD-level analysis before/after Nutlin-3a, all available TF-motif models; assay type: cell-based, human; conditions: HCT116 cells, of 641 TF-motif models, p-value<10^−6, FIG. 12A
Source text: as §1, §4
Let Xj={x1,x2, . . . } be the set of bidirectional origin locations genome wide for some experiment j. Let Yi={y1,y2, . . . } be the set of all significant motif sites for some TF-DNA binding motif model i genome wide, which is static as it only depends on the genome build of interest. Therefore the set of all MD-levels is calculated by equation 10. […]

interferon (IRF7) = assay: MD-level time series after Kdo2-lipid A, normalized to time-matched DMSO; assay type: cell-based; conditions: mouse T-cells, 1-24 hour time course, relative to time-matched DMSO, FIG. 12E
Method: (§6) The top panel of FIG. 4A indicates the motif displacement distribution, MD-level, and the number of motifs within […] of any eRNA origin before and after stimulation with Nutlin-3a (e.g., Nutlin) on TP53, the transcription factor known to be activated. […] Blue dots indicate a MD-level difference <10^−6.
(§7) In each of the aforementioned perturbations, nascent transcription was assessed at a time point of one hour or less. Therefore, it was determined whether MD-levels could capture transcription factor activity across broader time frames. […] For a number of TFs, MD-levels trend upward at 12.5 minutes and show significant changes within 25 minutes of exposure.
(§8) GEO SRR numbers of these comparisons are outlined in Table 2.

STAT2 = assay: as above; assay type: cell-based; conditions: mouse T-cells, 1-24 hour time course, relative to time-matched DMSO, FIG. 12E
Method: as §6, §7, §8

YBOX1 = assay: as above; assay type: cell-based; conditions: mouse T-cells, 1-24 hour time course, relative to time-matched DMSO, FIG. 12E

CN1CC[C@H](c2c(O)cc(O)c3c(=O)cc(-c4ccccc4Cl)oc23)[C@H](O)C1 [flavopiridol]
change in MD-level of TP53 (TP53): dramatic and monotonic increase
change in MD-level of E4F1 (E4F1): dramatic and monotonic increase
MD-levels at 12.5 minutes, a number of TFs (TFs; 12.5 minutes of exposure): trend upward
time of exposure to significant changes in MD-levels, a number of TFs (TFs; significance p<10^−6): ≤ 25 min

COc1ccc(C2=N[C@@H](c3ccc(Cl)cc3)[C@@H](c3ccc(Cl)cc3)N2C(=O)N2CCNC(=O)C2)c(OC(C)C)c1 [Nutlin-3a]
TF-motif models displaying elevated MD-levels following treatment [1]: only TP53 and TP63

CCCCCCCCCCCCCC(=O)O[C@H](CCCCCCCCCCC)CC(=O)O[C@@H]1[C@@H](NC(=O)C[C@@H](CCCCCCCCCCC)OC(=O)CCCCCCCCCCC)[C@H](OC[C@H]2O[C@H](OP(=O)(O)O)[C@H](NC(=O)C[C@H](O)CCCCCCCCCCC)[C@@H](OC(=O)C[C@H](O)CCCCCCCCCCC)[C@@H]2O)O[C@H](CO[C@]2(C(=O)O)C[C@@H](O[C@]3(C(=O)O)C[C@@H](O)[C@@H](O)[C@@H]([C@H](O)CO)O3)[C@@H](O)[C@@H]([C@H](O)CO)O2)[C@H]1OP(=O)(O)O [Kdo2-lipid A]
shifts in MD-level of interferon (IRF7) (interferon (IRF7)): dynamic and time-ordered shifts
shifts in MD-level of STAT2 (STAT2): dynamic and time-ordered shifts
change in co-localization (MD-level) of YBOX1 (YBOX1): decreased in co-localization
